For experiment [1], the target named is GST-Bcl-2 (Homo sapiens, UniProt P10415). The experiment in a line: TR-FRET binding assay, GST-Bcl-2 with F-Bak peptide probe. As to conditions: TR-FRET Binding Affinity, GST-Bcl-2, F-Bak peptide probe. The method in brief:
(§1)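 Displacement of a fluorescein-labelled Bak peptide from the GST-tagged protein was followed by time-resolved FRET with a terbium anti-GST donor after 3 h incubation at room temperature. Inhibition constants were calculated with Wang's equation.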
For orientation: In TR-FRET formats the signal depends on donor and acceptor labels being close together.

Experiment [2] has as its target GST-Bcl-XL (Homo sapiens, UniProt Q07817). Nature of the experiment: TR-FRET binding assay, GST-Bcl-XL with F-Bak peptide probe. As to conditions: TR-FRET Binding Affinity, GST-Bcl-XL, F-Bak peptide probe. The method in brief: as §1
For experiment [3], the system named is Canine platelets. Nature of the experiment: Platelet cell viability assay (platelet-rich plasma, Cell Titer Glo). The class given is cell-based. The conditions noted are these: Canis lupus familiaris, 5 h, isolated canine platelets ex vivo, five hours at 37° C. How it is done: After the incubation, platelets were equilibrated to room temperature for 20 minutes and then an equal volume of Cell Titer Glo reagent (Promega Corporation) was added. Samples were mixed for two minutes and then allowed to equilibrate for an additional 10 minutes at room temperature. The luminescence generated from the samples was quantitated using an LJL Analyst plate reader.
The effect of compounds on platelet survival can be directly evaluated ex vivo by examining the viability of isolated canine platelets in the presence of various concentrations of compound.
A general note: In ATP-based viability assays light output follows the ATP content of the culture.

In experiment [4] the test system is FL5.12/Bcl-2 cells. Nature of the experiment: FL5.12/Bcl-2 cell viability assay under IL-3 withdrawal (CellTitre Glo). The format is cell-based, murine. The conditions noted are these: Mus musculus, IL-3 withdrawn 48 hrs, then 24 hrs with compound. The method in brief:
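Murine IL-3-dependent FL5.12 cells stably overexpressing Bcl-2 were deprived of IL-3 (WEHI-3B conditioned medium omitted) for 48 hrs, then exposed to various compound concentrations for a further 24 hrs at 37° C, 5% CO2. Viability was read by CellTitre Glo luminescence.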

The term Ki denotes the equilibrium dissociation constant of an inhibitor or competing ligand from its target. Low values mean higher affinity, high ones lower affinity. Usually EC50 stands for the midpoint of the concentration-response curve.

Chain of GST-Bcl-2 (P10415 whole entry): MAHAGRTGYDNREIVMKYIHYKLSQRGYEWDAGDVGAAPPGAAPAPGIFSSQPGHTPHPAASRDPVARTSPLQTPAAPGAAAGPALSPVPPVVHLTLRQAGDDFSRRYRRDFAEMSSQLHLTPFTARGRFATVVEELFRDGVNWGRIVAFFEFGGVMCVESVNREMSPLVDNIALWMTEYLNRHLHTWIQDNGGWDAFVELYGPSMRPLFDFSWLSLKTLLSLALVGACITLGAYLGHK
Chain of GST-Bcl-XL (Q07817 whole entry): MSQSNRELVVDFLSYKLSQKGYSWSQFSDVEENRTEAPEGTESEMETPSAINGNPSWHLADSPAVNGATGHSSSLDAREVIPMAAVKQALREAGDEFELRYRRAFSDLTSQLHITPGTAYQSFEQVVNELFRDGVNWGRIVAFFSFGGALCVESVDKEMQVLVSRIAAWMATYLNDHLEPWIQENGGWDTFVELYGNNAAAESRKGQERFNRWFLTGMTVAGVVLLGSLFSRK

`CC1(C)CCC(CN2CCN(c3ccc(C(=O)NS(=O)(=O)c4ccc(NCCCN5CCCC5)c([N+](=O)[O-])c4)c(Oc4cccc5[nH]ccc45)c3)CC2)=C(c2ccc(C(F)(F)F)cc2)C1` [Example 69, 4-[4-({4,4-dimethyl-2-[4-(trifluoromethyl)phenyl]cyclohex-1-en-1-yl}methyl)piperazin-1-yl]-2-(1H-indol-4-yloxy)-N-({3-nitro-4-[(3-pyrrolidin-1-ylpropyl)amino]phenyl}sulfonyl)benzamide]: the Ki amounted to 1.25 nM in experiment [1] and 92.1 nM in experiment [2]. Besides, the values for the EC50 in experiment [3] and in experiment [4] were greater than 50000 nM and 75 nM, respectively.

With `CC1(C)CCC(CN2CCN(c3ccc(C(=O)NS(=O)(=O)c4ccc(NCCCN5CCCC5)c([N+](=O)[O-])c4)c(Oc4cccc5[nH]ccc45)c3)CC2)=C(c2ccc(OC(F)(F)F)cc2)C1` [Example 70, 4-[4-({4,4-dimethyl-2-[4-(trifluoromethoxy)phenyl]cyclohex-1-en-1-yl}methyl)piperazin-1-yl]-2-(1H-indol-4-yloxy)-N-({3-nitro-4-[(3-pyrrolidin-1-ylpropyl)amino]phenyl}sulfonyl)benzamide], the Ki is 1.19 nM in experiment [1] and 74.4 nM in experiment [2]. For the same compound, the EC50 in experiment [3] is greater than 50000 nM; in experiment [4] it was 111 nM.

For `CC1(C)CCC(CN2CCN(c3ccc(C(=O)NS(=O)(=O)c4ccc(NCCCN5CCCC5)c([N+](=O)[O-])c4)c(Oc4cccc5[nH]ccc45)c3)CC2)=C(c2cccc(C(F)(F)F)c2)C1` [Example 71, 4-[4-({4,4-dimethyl-2-[3-(trifluoromethyl)phenyl]cyclohex-1-en-1-yl}methyl)piperazin-1-yl]-2-(1H-indol-4-yloxy)-N-({3-nitro-4-[(3-pyrrolidin-1-ylpropyl)amino]phenyl}sulfonyl)benzamide], the Ki was 6.23 nM in experiment [1] and greater than 660 nM in experiment [2]. The EC50 is greater than 50000 nM in experiment [3] and 460 nM in experiment [4].

As to `CC1(C)CCC(CN2CCN(c3ccc(C(=O)NS(=O)(=O)c4ccc(NCCCN5CCCC5)c([N+](=O)[O-])c4)c(Oc4cccc5[nH]ccc45)c3)CC2)=C(c2cccc(F)c2)C1` [Example 72, 4-(4-{[2-(3-fluorophenyl)-4,4-dimethylcyclohex-1-en-1-yl]methyl}piperazin-1-yl)-2-(1H-indol-4-yloxy)-N-({3-nitro-4-[(3-pyrrolidin-1-ylpropyl)amino]phenyl}sulfonyl)benzamide], the Ki in experiment [1] worked out at 3.02 nM; in experiment [2], 52.4 nM. The EC50 in experiment [3] was greater than 50000 nM; in experiment [4], 154 nM.

For the compound `CC1(C)CCC(CN2CCN(c3ccc(C(=O)NS(=O)(=O)c4ccc(NCCCN5CCCC5)c([N+](=O)[O-])c4)c(Oc4cccc5[nH]ccc45)c3)CC2)=C(c2ccc(F)cc2)C1` [Example 73, 4-(4-{[2-(4-fluorophenyl)-4,4-dimethylcyclohex-1-en-1-yl]methyl}piperazin-1-yl)-2-(1H-indol-4-yloxy)-N-({3-nitro-4-[(3-pyrrolidin-1-ylpropyl)amino]phenyl}sulfonyl)benzamide], the values for the Ki in experiment [1] and in experiment [2] were 1.7 nM and 16.9 nM, respectively. Moreover, the values for the EC50 in experiment [3] and in experiment [4] were 23200 nM and 140 nM, respectively.

`CN1CCC(Nc2ccc(S(=O)(=O)NC(=O)c3ccc(N4CCN(CC5=C(c6ccc(Cl)cc6)CC(C)(C)CC5)CC4)cc3Oc3ccc4[nH]ccc4c3)cc2S(=O)(=O)C(F)(F)Cl)CC1` [Example 74, N-({3-{[chloro(difluoro)methyl]sulfonyl}-4-[(1-methylpiperidin-4-yl)amino]phenyl}sulfonyl)-4-(4-{[2-(4-chlorophenyl)-4,4-dimethylcyclohex-1-en-1-yl]methyl}piperazin-1-yl)-2-(1H-indol-5-yloxy)benzamide]: the Ki is 0.02 nM in experiment [1] and 25.2 nM in experiment [2]. In addition, the results for the EC50 in experiment [3] and in experiment [4] were 16700 nM and 8 nM, respectively.

In the case of `CN1CCC(Nc2ccc(S(=O)(=O)NC(=O)c3ccc(N4CCN(CC5=C(c6ccc(Cl)cc6)CCCC5)CC4)cc3Oc3ccc4[nH]ccc4c3)cc2[N+](=O)[O-])CC1` [Example 75, 4-(4-{[2-(4-chlorophenyl)cyclohex-1-en-1-yl]methyl}piperazin-1-yl)-2-(1H-indol-5-yloxy)-N-({4-[(1-methylpiperidin-4-yl)amino]-3-nitrophenyl}sulfonyl)benzamide], the Ki in experiment [1] was 0.125 nM; in experiment [2], 107 nM. Besides, the EC50 in experiment [3] amounted to 17700 nM; in experiment [4], 22 nM.

For `CN1CCN(CCCNc2ccc(S(=O)(=O)NC(=O)c3ccc(N4CCN(Cc5ccccc5-c5ccc(Cl)cc5)CC4)cc3Oc3ccccc3)cc2[N+](=O)[O-])CC1` [Example 86, 4-{4-[(4′-chloro-1,1′-biphenyl-2-yl)methyl]piperazin-1-yl}-N-[(4-{[3-(4-methylpiperazin-1-yl)propyl]amino}-3-nitrophenyl)sulfonyl]-2-phenoxybenzamide], the inhibitory constant (Ki) in experiment [1] was 0.212 nM; in experiment [2] it was 10.5 nM. Moreover, the concentration for a half-maximal effect (EC50) in experiment [3] was 36300 nM; in experiment [4], 74 nM.

Turning to `CN1CCC(CNc2ccc(S(=O)(=O)NC(=O)c3ccc(N4CCN(Cc5ccccc5-c5ccc(Cl)cc5)CC4)cc3Oc3ccccc3)cc2[N+](=O)[O-])CC1` [Example 88, 4-{4-[(4′-chloro-1,1′-biphenyl-2-yl)methyl]piperazin-1-yl}-N-[(4-{[(1-methylpiperidin-4-yl)methyl]amino}-3-nitrophenyl)sulfonyl]-2-phenoxybenzamide], the Ki in experiment [1] amounted to 0.069 nM; in experiment [2], 4.64 nM. The EC50 came out at 19900 nM in experiment [3] and 32 nM in experiment [4].

For `CN1CCC(Nc2ccc(S(=O)(=O)NC(=O)c3ccc(N4CCN(Cc5ccccc5-c5ccc(Cl)cc5)CC4)cc3Oc3ccccc3)cc2[N+](=O)[O-])CC1` [Example 89, 4-{4-[(4′-chloro-1,1′-biphenyl-2-yl)methyl]piperazin-1-yl}-N-({4-[(1-methylpiperidin-4-yl)amino]-3-nitrophenyl}sulfonyl)-2-phenoxybenzamide], the Ki turned out to be 0.129 nM in experiment [1] and 7.45 nM in experiment [2]. Moreover, the EC50 in experiment [3] worked out at 32000 nM; in experiment [4] it was 65 nM.

`CN(C)CCCOc1ccc(S(=O)(=O)NC(=O)c2ccc(N3CCN(Cc4ccccc4-c4ccc(Cl)cc4)CC3)cc2Oc2ccccc2)cc1[N+](=O)[O-]` [Example 94, 4-{4-[(4′-chloro-1,1′-biphenyl-2-yl)methyl]piperazin-1-yl}-N-({4-[3-(dimethylamino)propoxy]-3-nitrophenyl}sulfonyl)-2-phenoxybenzamide]: the Ki in experiment [1] came to 0.07 nM; in experiment [2], 2.32 nM. Also, the EC50 in experiment [3] turned out to be 23800 nM; in experiment [4], 40 nM.

`CN1CCN(CCCNc2ccc(S(=O)(=O)NC(=O)c3ccc(N4CCN(CC5=C(c6ccc(Cl)cc6)CC(C)(C)CC5)CC4)cc3Oc3ccc4[nH]ccc4c3)cc2[N+](=O)[O-])CC1` [Example 96, 4-(4-{[2-(4-chlorophenyl)-4,4-dimethylcyclohex-1-en-1-yl]methyl}piperazin-1-yl)-2-(1H-indol-5-yloxy)-N-[(4-{[3-(4-methylpiperazin-1-yl)propyl]amino}-3-nitrophenyl)sulfonyl]benzamide]: the Ki in experiment [1] came out at 0.047 nM; in experiment [2] it was 8.78 nM. Also, the EC50 in experiment [3] was determined as 22300 nM; in experiment [4], 11 nM.

Take `CC1(C)CCC(CN2CCN(c3ccc(C(=O)NS(=O)(=O)c4ccc(NCCCN5CCCC5)c([N+](=O)[O-])c4)c(Oc4ccc5[nH]ccc5c4)c3)CC2)=C(c2ccc(Cl)cc2)C1` [Example 97, 4-(4-{[2-(4-chlorophenyl)-4,4-dimethylcyclohex-1-en-1-yl]methyl}piperazin-1-yl)-2-(1H-indol-5-yloxy)-N-({3-nitro-4-[(3-pyrrolidin-1-ylpropyl)amino]phenyl}sulfonyl)benzamide]: the results for the Ki in experiment [1] and in experiment [2] were 0.027 nM and 2.61 nM, respectively. For the same compound, the figures for the EC50 in experiment [3] and in experiment [4] were 14100 nM and 13 nM, respectively.

As for `CN1CCN(CCCNc2ccc(S(=O)(=O)NC(=O)c3ccc(N4CCN(CC5=C(c6ccc(Cl)cc6)CC(C)(C)CC5)CC4)cc3Oc3cccc4[nH]ccc34)cc2[N+](=O)[O-])CC1` [Example 99, 4-(4-{[2-(4-chlorophenyl)-4,4-dimethylcyclohex-1-en-1-yl]methyl}piperazin-1-yl)-2-(1H-indol-4-yloxy)-N-[(4-{[3-(4-methylpiperazin-1-yl)propyl]amino}-3-nitrophenyl)sulfonyl]benzamide], the Ki in experiment [1] came out at 0.04 nM; in experiment [2], 5.53 nM. The EC50 amounted to 21700 nM in experiment [3] and 9 nM in experiment [4].

As to `CN(C)CCCOc1ccc(S(=O)(=O)NC(=O)c2ccc(N3CCN(CC4=C(c5ccc(Cl)cc5)CC(C)(C)CC4)CC3)cc2Oc2ccc3[nH]ccc3c2)cc1[N+](=O)[O-]` [Example 100, 4-(4-{[2-(4-chlorophenyl)-4,4-dimethylcyclohex-1-en-1-yl]methyl}piperazin-1-yl)-N-({4-[3-(dimethylamino)propoxy]-3-nitrophenyl}sulfonyl)-2-(1H-indol-5-yloxy)benzamide], the figures for the Ki in experiment [1] and in experiment [2] were 0.116 nM and 8.29 nM, respectively. In addition, the EC50 in experiment [3] came out at 31200 nM; in experiment [4], 15 nM.

Source of the values: US9073855B2, “BCL-2 selective apoptosis-inducing agents for the treatment of cancer and immune diseases” (AbbVie Inc., priority 2008, dated 2015).
